For four compounds, inhibition results are on record in publication PMC11721856, “Searching for novel MDM2/MDMX dual inhibitors through a drug repurposing approach” (Journal of Enzyme Inhibition and Medicinal Chemistry, 2023).

The target in one assay is T1, MDM2 (Homo sapiens, UniProt Q00987).
T1 construct: residues 1–110
Description: competitive fluorescence polarisation, % inhibition at […]. To be noted: read-out: Protein binding inhibition at 1 μM(%) ^a / MDM2.

In a further assay the target is T2, MDMX (Homo sapiens, UniProt O15151).
T2 construct: gene MDM4; residues 1–110
T2 sequence (O15151 1-110): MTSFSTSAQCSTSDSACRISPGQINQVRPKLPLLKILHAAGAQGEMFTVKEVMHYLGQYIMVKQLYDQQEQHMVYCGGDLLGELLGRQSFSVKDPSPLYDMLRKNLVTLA
The assay is described as above. To be noted: read-out: Protein binding inhibition at 1 μM(%) ^a / MDMX.

As for `COC(=C1C(=O)Nc2cc(F)ccc21)c1ccccc1` [H5, 6-fluoro-3-(methoxy(phenyl)methylene) indolin-2-one], the inhibition at 1 µM at MDM2 was 56.8 ± 1.9%.

As to `COC(=C1C(=O)Nc2cc(Cl)ccc21)c1ccccc1` [H3, 6-chloro-3-(methoxy(phenyl)methylene) indolin-2-one], the inhibition at 1 µM is 72.8 ± 5.6% on MDM2 and 57.9 ± 6.1% on MDMX.

As for `O=C1Nc2cc(Cl)ccc2C1=C(c1ccccc1)N1CCCC1` [H7, 6-chloro-3-(phenyl(pyrrolidin-1-yl)methylene)indolin-2-one], at MDM2, the inhibition at 1 µM was determined as 52.6 ± 2.1%.

Turning to `COC(=C1C(=O)Nc2cc(Cl)c(F)cc21)c1ccccc1` [H6, 6-chloro-5-fluoro-3-(methoxy(phenyl)methylene) indolin-2-one], the inhibition at 1 µM on MDM2 was found to be 50.3 ± 2.5%.
